Reference: patent US12174172B2, “Method for evaluating the efficacy of a composition in reducing the effects of cancer therapeutics on skin” (Johnson & Johnson Consumer Inc., priority 2019, dated 2024)
“And” between values parts separate entries of the source, which are not always exact repeats. Equal values may be shown once. Read-outs that look alike come from different tables or passages of the source. Marks after values point to notes of the source that are not given here.

What was measured:
[1] = test system: Human epidermal keratinocytes cells (HPEKs), 3D micro-epidermis; assay: 3D micro-epidermis model (EpiScreen): epidermis size, toxicity, dose response, classification; format: cell-based; settings: for Dose in response: variation of protein expression at 3, 10, 30 nM (EGFRi) or 3, 10, 30, 100 nM (VEGFRi); for Dose in response / Dose/response: markers in brackets; for Dose/response: supplementary table, per run (1st or 2nd Run); for effect on desmoglein-1, involucrin and filaggrin expression (dose dependence): 3, 10, 30 nM;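 on all read-outs here: keratinocytes on micropatterned discs in high-calcium medium, drug exposure for three days, then fixation and confocal high-content imaging of actin, nuclei and a marker, vehicle DMSO-matched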
desmoglein-1 (DSG1) [2] = assay: 3D micro-epidermis model (EpiScreen): desmoglein-1 immunostaining; format: cell-based, human; settings: for activation at 0.01 µM / activation at 0.1 µM: Homo sapiens, 72 h; for activation at 0.01 µM: 10 nM, read-out: DSG 10 nM; for DSG-1 expression: Table 1 summary; for activation at 0.1 µM: read-out: DSG 100 nM
Protocol: (§1) To assess the effects of such therapy molecules on the epidermis, keratinocytes were grown in the presence of kinase inhibitors during 3 days with high calcium concentration to induce keratinocyte differentiation and generate a 3D-stratified differentiated epidermis. Drug impact on the epidermis development was assessed via different keratinocyte markers including: • Ki-67, an universally expressed protein among proliferating cells and absent in the quiescent cells; • Filaggrin, a filament-associated protein that binds to keratin fibers and is a marker of terminal differentiation; • Desmoglein-1, a component of desmosomes and differentiation marker expressed in all epidermal layer above the basal layer; and • Involucrin, an early differentiation marker expressed in the spinous and granular layers and a protein precursor of the epidermal cornified envelope.
(§2) Human epidermal keratinocytes cells (HPEKs) from a juvenile donor (CellnTec, Switzerland) are cultured in flasks in proliferation medium. Keratinocytes are seeded at passage 6 into EpiScreen™ (Abzena, Cambridge, UK) plates containing collagen 1 coated disc micropatterns (CYTOO, Grenoble, France). Four hours later, unattached cells are washed off and a high calcium medium is added to induce keratinocytes differentiation. The day after, keratinocytes are treated with screening compounds, and Trichostatin A is added at 0.3 μM as an internal positive control. After three days of treatment, micro-epidermises are fixed with a formalin solution 10% for 30 minutes, then permeabilized with 0.1% Triton. Several immunostainings are performed: actin (Acti-Stain 555, PHDH1, Cytoskeleton), nuclei (Hoechst, H3570, Invitrogen), and one biomarker of interest per well either anti-involucrin (HPA055211, Sigma), anti-filaggrin (HPA030189, Sigma) or anti-desmoglein-1 (HPA022128, Sigma). Antibodies are added overnight at 4° C. before staining with secondary antibody, anti-rabbit 488 (711-545-152, Jackson) for 2 hours at room temperature.
(§3) Images of each well are acquired with the Operetta HCS platform (Perkin Elmer, Waltham, MA, USA) using a ×10 objective in confocal mode in eight z-planes from 2 μm to 44 μm in steps of 6 μm in each of the 3 channels: actin, nuclei, and one biomarker of interest. The first step of the image analysis consists in detecting micro-epidermis structures on the first z-plane by segmenting the actin staining. Micro-epidermis structures are validated based on several area and roundness min and max criteria. Then, the area of each biomarker staining is measured inside the valid micro-epidermis masks through each z-plane. For all homogeneous biomarker staining, their intensity through the different planes is measured.
(§4) The actin network of each micro-epidermis is analyzed in each z-plane in order to determine the average 3D structure edges. The biomarker intensity is measured in each z-plane for each structure, and then averaged with the other results generated in the same well. Based on the data generated in the two previous steps, an average 3D reconstruction image is generated. It consists of a meshwork that delimits the structure edges, and a color scaled volume that corresponds to the biomarkers distribution and expression.
The effect of 8 oncology molecules, selected from first generation EGFRi and pan-kinase inhibitors which mostly target VEGFR and second and third generation therapies targeting main mutations relating to first generation treatment resistance, were assessed in vitro using a 3D micro-epidermis model. The drug incubation concentrations (3, 10, 30, 100 nM) were selected to reflect the clinically relevant (unbound) drug exposures (Table 2). The drug impact was assessed by analysis of tissue size and keratinocyte proliferation using Ki-67 staining and keratinocyte differentiation using filaggrin, desmoglein-1 and involucrin staining. […]

involucrin (IVL) = assay: 3D micro-epidermis model (EpiScreen): involucrin immunostaining; format: cell-based, human; settings: for IVL expression: Table 1 summary; for activation at 0.1 µM: Homo sapiens, 72 h
Protocol: as §1, §2, §3, §4
The effect of 8 oncology molecules, selected from first generation EGFRi and pan-kinase inhibitors which mostly target VEGFR and second and third generation therapies targeting main mutations relating to first generation treatment resistance, were assessed in vitro using a 3D micro-epidermis model. […] The drug impact was assessed by analysis of tissue size and keratinocyte proliferation using Ki-67 staining and keratinocyte differentiation using filaggrin, desmoglein-1 and involucrin staining.
Size of the epidermis and the expression of the protein junction desmoglein-1 (DSG1), involucrin (IVL) and filaggrin (FLG) was assessed by immunostaining and compared to untreated control. […]

filaggrin (FLG) = assay: 3D micro-epidermis model (EpiScreen): filaggrin immunostaining; format: cell-based, human; settings: for activation at 0.01 µM / activation at 0.1 µM: Homo sapiens, 72 h; for FLG expression: Table 1 summary;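 on all read-outs here: human primary epidermal keratinocytes differentiated in high calcium into 3D micro-epidermises, compound-treated for three days, imaged by confocal high-content microscopy, filaggrin staining intensity quantified within actin-segmented structures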
desmoglein-1 (DSG1) [3] = assay: 3D micro-epidermis model (EpiScreen): desmoglein-1 immunostaining; format: cell-based, human; settings: 10 μM; supplementary data; Tox = toxic
[4] = cited from earlier work; for Cmax: maximal plasma concentration after a single daily-recommended dose, human; for Unbound fraction: unbound to plasma protein; for Unbound concentration: unbound plasma concentration, identified or calculated from Cmax and unbound fraction
[5] = most frequent cutaneous adverse reaction reported by the FDA Adverse Event Reporting System; cited from earlier work
[6] = Table 1 summary of drug effect on epidermis
[7] = Table 1 summary, pro-differentiation / pro-proliferation
[8] = Table 3, 30 nM (EGFRi) or 100 nM (VEGFRi), 3 days, vs untreated control, superscript = significance footnote
[9] = Table 3, pro-proliferation or pro-differentiation
[10] = concentration (afatinib 3, 10, 30 nM; pan-kinase inhibitors 100 nM)
[11] = supplementary data, two runs, Tox = toxic
[12] = read-out: FLG 10 nM, 10 nM, supplementary data, two runs
[13] = 10 nM, supplementary data, two runs, read-out: FLG 10 nM
[14] = 100 nM, supplementary data, Tox = toxic
[15] = 100 nM, supplementary data, two runs, Tox = toxic

SMILES	Toxicity at 1 μM ([1]; 1 μM, micro-epidermis)	Epidermis size [1, 6]	Classification [1, 7]	Epidermis size [1, 8]	Classification [1, 9]	Dose in response ([1]; Table 3)	Dose/response [1]	activation at 0.01 µM (desmoglein-1 (DSG1) [2]; supplementary data)	DSG-1 expression (desmoglein-1 (DSG1) [2])	IVL 10 nM (involucrin (IVL); supplementary data, two runs)	IVL expression (involucrin (IVL))	FLG expression (filaggrin (FLG))	Cmax [4]	Unbound fraction [4]	Major Skin Effect [5]	activation at 0.01 µM (filaggrin (FLG); [13])	effect on desmoglein-1, involucrin and filaggrin expression (dose dependence) [1]	DSG 3 nM (desmoglein-1 (DSG1) [2]; supplementary data)	DSG 30 nM (desmoglein-1 (DSG1) [2]; supplementary data)	IVL 3 nM (involucrin (IVL); supplementary data)	also measured
CNC(=O)c1cc(Oc2ccc(NC(=O)Nc3ccc(Cl)c(C(F)(F)F)c3)cc2)ccn1 [Sorafenib]	Yes	Decreased	Pro-proliferation	Decreased^2	Pro-	No	No	-8%	Unchanged	6%	Unchanged	Decreased	8180 nM	0.29%	Rash	–	–	–	–	–	desmoglein-1 expression (desmoglein-1 (DSG1) [2]; [10]): do not impact; IVL 10 μM (involucrin (IVL); [11]): Tox; involucrin expression (involucrin (IVL); [10]): do not impact; FLG 10 μM (filaggrin (FLG); [11]): Tox; activation at 0.01 µM (filaggrin (FLG); [12]): -22%; DSG 10 μM (desmoglein-1 (DSG1) [3]): Tox
CCN(CC)CCNC(=O)c1c(C)[nH]c(/C=C2\C(=O)Nc3ccc(F)cc32)c1C [Sunitinib]	No	–	–	–	–	–	–	15%	–	0%	–	–	75 nM	5%*	Palmoplantar	-5%	–	–	–	–	micro-epidermis size / epidermal volume ([1]; concentration (afatinib 3-30 nM; pan-kinase inhibitors up to 100 nM)): no effect; IVL 10 μM (involucrin (IVL); [11]): 24%; FLG 10 μM (filaggrin (FLG); [11]): 101%; DSG 10 μM (desmoglein-1 (DSG1) [3]): 27%
CS(=O)(=O)CCNCc1ccc(-c2ccc3ncnc(Nc4ccc(OCc5cccc(F)c5)c(Cl)c4)c3c2)o1 [Lapatinib]	–	Decreased	Pro-differentiation	Unchanged^4	Pro-	Yes	Yes (DSG, IVL,	9.6%	Increased	14%	Increased	Increased	516 nM	1%*	Rash	9%	dose-dependent manner	−6.20%	29%	17%	Toxicity at 1 μM [1]: Yes; activation at 0.1 µM (desmoglein-1 (DSG1) [2]; [14]): 47%; IVL 30 nM (involucrin (IVL); supplementary data): 30%; activation at 0.1 µM (involucrin (IVL); [15]): 48%; FLG 3 nM (filaggrin (FLG); supplementary data): 7%; FLG 30 nM (filaggrin (FLG); supplementary data): 20%; activation at 0.1 µM (filaggrin (FLG); 100 nM, supplementary data, two runs, Tox = toxic, read-out: FLG 100 nM): 18%; Unbound concentration [4]: 5.16* nM
C#Cc1cccc(Nc2ncnc3cc(OCCOC)c(OCCOC)cc23)c1 [Erlotinib]	–	Decreased	Pro-differentiation	Decreased^1	Pro-	No	No	-2%	Increased	16%	Increased	Increased	1600 nM	5%	Papulo-pustular	–	did not affect	−7%	1%	13%	Toxicity at 1 μM [1]: Yes; activation at 0.1 µM (desmoglein-1 (DSG1) [2]; [14]): 36%; IVL 30 nM (involucrin (IVL); supplementary data): 22%; activation at 0.1 µM (involucrin (IVL); [15]): 35%; FLG 3 nM (filaggrin (FLG); supplementary data): 6%; FLG 30 nM (filaggrin (FLG); supplementary data): 10%; activation at 0.01 µM (filaggrin (FLG); [12]): 0%; activation at 0.1 µM (filaggrin (FLG); read-out: FLG 100 nM, 100 nM, supplementary data, two runs, Tox = toxic): 34%
COc1cc2ncnc(Nc3ccc(F)c(Cl)c3)c2cc1NC(=O)/C=C/CN1CCCCC1 [Dacomitinib]	Yes	Decreased	Pro-differentiation	Unchanged^4	Pro-	Yes	Yes (DSG, IVL,	32%	Increased	31%	Increased	Increased	178 nM	0.24%	Rash	25%	dose-dependent manner	10.00%	54%	15%	DSG 100 nM (desmoglein-1 (DSG1) [2]; [14]): Tox; IVL 30 nM (involucrin (IVL); supplementary data): 60%; IVL 100 nM (involucrin (IVL); [15]): Tox; FLG 3 nM (filaggrin (FLG); supplementary data): 8%; FLG 30 nM (filaggrin (FLG); supplementary data): 31%; FLG 100 nM (filaggrin (FLG); [15]): Tox; Unbound concentration [4]: 0.42 nM and 0.425* nM
